Experiments:
Type in all cases: functional
CAKI-1 = experiment: Growth inhibition of human Caki1 cells
NCI-H226 = experiment: Growth inhibition of human NCI-H226 cells
SW-620 = experiment: Growth inhibition of human SW620 cells
RXF 393 = experiment: Growth inhibition of human RXF393 cells
NCI-H522 = experiment: Growth inhibition of human NCI-H522 cells
SNB-19 = experiment: Growth inhibition of human SNB19 cells
MDA-MB-231 = experiment: Growth inhibition of human MDA-MB-231 cells
IGROV-1 = experiment: Growth inhibition of human IGROV1 cells
NCI-H460 = experiment: Growth inhibition of human NCI-H460 cells
UACC-62 = experiment: Growth inhibition of human UACC62 cells
SK-MEL-28 = experiment: Growth inhibition of human SK-MEL-28 cells
SF-295 = experiment: Growth inhibition of human SF295 cells
CCRF-CEM = experiment: Growth inhibition of human CCRF-CEM cells
ACHN = experiment: Growth inhibition of human ACHN cells
K562 = experiment: Growth inhibition of human K562 cells
LOX IMVI = experiment: Growth inhibition of human LOXIMVI cells
[1] = Growth inhibition of human […] cells
OVCAR-3 = experiment: Growth inhibition of human OVCAR-3 cells
U-251 = experiment: Growth inhibition of human U251 cells
786-0 = experiment: Growth inhibition of human 786-0 cells
SF-539 = experiment: Growth inhibition of human SF539 cells
SK-MEL-5 = experiment: Growth inhibition of human SK-MEL-5 cells
T47D = experiment: Growth inhibition of human T47D cells
KM12 = experiment: Growth inhibition of human KM12 cells
A498 = experiment: Growth inhibition of human A498 cells
PC-3 = experiment: Growth inhibition of human PC3 cells
HOP-62 = experiment: Growth inhibition of human HOP62 cells
SK-MEL-2 = experiment: Growth inhibition of human SK-MEL-2 cells
A549 = experiment: Growth inhibition of human A549 cells
OVCAR-8 = experiment: Growth inhibition of human OVCAR8 cells
MCF7 = experiment: Growth inhibition of human MCF7 cells
NCI-H23 = experiment: Growth inhibition of human NCI-H23 cells
UACC-257 = experiment: Growth inhibition of human UACC257 cells
OVCAR-5 = experiment: Growth inhibition of human OVCAR5 cells
Malme-3M = experiment: Growth inhibition of human MALME-3M cells
[2] = Growth inhibition of human Hs 578T cells
UO-31 = experiment: Growth inhibition of human UO31 cells
SN12C = experiment: Growth inhibition of human SN12C cells
BT-549 = experiment: Growth inhibition of human BT549 cells
SF-268 = experiment: Growth inhibition of human SF268 cells
DU-145 = experiment: Growth inhibition of human DU145 cells
SK-OV-3 = experiment: Growth inhibition of human SKOV3 cells
MOLT-4 = experiment: Growth inhibition of human MOLT4 cells
TK-10 = experiment: Growth inhibition of human TK10 cells
NCI-H322M = experiment: Growth inhibition of human NCI-H322M cells
HCC 2998 = experiment: Growth inhibition of human HCC2998 cells
HCT-15 = experiment: Growth inhibition of human HCT15 cells
M14 = experiment: Growth inhibition of human M14 cells
HOP-92 = experiment: Growth inhibition of human HOP92 cells
OVCAR-4 = experiment: Growth inhibition of human OVCAR4 cells
COLO 205 = experiment: Growth inhibition of human COLO205 cells
EKVX = experiment: Growth inhibition of human EKVX cells
HCT-116 = experiment: Growth inhibition of human HCT116 cells
MDA-N = experiment: Growth inhibition of human MDA-N cells
SR = experiment: Growth inhibition of human SR cells
SNB-75 = experiment: Growth inhibition of human SNB75 cells
HT-29 = experiment: Growth inhibition of human HT-29 cells
NCI/ADR-RES = experiment: Growth inhibition of human NCI/ADR-RES cells
MDA-MB-435 = experiment: Growth inhibition of human MDA-MB-435 cells
HL-60(TB) = experiment: Growth inhibition of human HL-60(TB) cells
[3] = read-out: pLC50 (the source's name) (converted)

CC(=O)OC(C)(C)/C=C/C(=O)[C@](C)(O)[C@H]1[C@H](O)C[C@@]2(C)[C@@H]3CC=C4[C@@H](C=C(O)C(=O)C4(C)C)[C@]3(C)C(=O)C[C@]12C [CUCURBITACIN E]
CC50 (CAKI-1; [3]): 79.4 nM | TGI (CAKI-1; read-out: pTGI (converted)): 20.9 nM | CC50 (NCI-H226; [3]): 9770 nM | TGI (NCI-H226; read-out: pTGI (converted)): 91.2 nM | CC50 (SW-620; [3]): 19100 nM | TGI (SW-620; read-out: pTGI (converted)): 2090 nM | CC50 (RXF 393; [3]): 347 nM | TGI (RXF 393; read-out: pTGI (converted)): 49 nM | CC50 (NCI-H522; [3]): 3310 nM | TGI (NCI-H522; read-out: pTGI (converted)): 81.3 nM | CC50 (SNB-19; [3]): 1510 nM | TGI (SNB-19; read-out: pTGI (converted)): 209 nM | CC50 (MDA-MB-231; [3]): 891 nM | TGI (MDA-MB-231; read-out: pTGI (converted)): 53.7 nM | CC50 (IGROV-1; [3]): 3890 nM | TGI (IGROV-1; read-out: pTGI (converted)): 19.9 nM | CC50 (NCI-H460; [3]): 19100 nM | TGI (NCI-H460; read-out: pTGI (converted)): 2190 nM | CC50 (UACC-62; [3]): 1910 nM | TGI (UACC-62; read-out: pTGI (converted)): 347 nM | CC50 (SK-MEL-28; [3]): 4170 nM | TGI (SK-MEL-28; read-out: pTGI (converted)): 77.6 nM | CC50 (SF-295; [3]): 5620 nM | TGI (SF-295; read-out: pTGI (converted)): 81.3 nM | CC50 (CCRF-CEM; [3]): 34700 nM | TGI (CCRF-CEM; read-out: pTGI (converted)): 6310 nM | CC50 (ACHN; [3]): 2510 nM | TGI (ACHN; read-out: pTGI (converted)): 141 nM | CC50 (K562; [3]): 32400 nM | TGI (K562; read-out: pTGI (converted)): 15100 nM | CC50 (LOX IMVI; [3]): 53.7 nM | TGI (LOX IMVI; read-out: pTGI (converted)): 19.1 nM | CC50 [1, 3]: 34700 nM | TGI ([1]; read-out: pTGI (converted)): 8130 nM | CC50 (OVCAR-3; [3]): 3720 nM | TGI (OVCAR-3; read-out: pTGI (converted)): 83.2 nM | CC50 (U-251; [3]): 3470 nM | TGI (U-251; read-out: pTGI (converted)): 646 nM | CC50 (786-0; [3]): 4070 nM | TGI (786-0; read-out: pTGI (converted)): 129 nM | CC50 (SF-539; [3]): 331 nM | TGI (SF-539; read-out: pTGI (converted)): 18.2 nM | CC50 (SK-MEL-5; [3]): 759 nM | TGI (SK-MEL-5; read-out: pTGI (converted)): 120 nM | CC50 (T47D; [3]): 12900 nM | TGI (T47D; read-out: pTGI (converted)): 2000 nM | CC50 (KM12; [3]): 15100 nM | TGI (KM12; read-out: pTGI (converted)): 4790 nM | CC50 (A498; [3]): 63.1 nM | TGI (A498; read-out: pTGI (converted)): 25.7 nM | CC50 (PC-3; [3]): 6760 nM | TGI (PC-3; read-out: pTGI (converted)): 257 nM | CC50 (HOP-62; [3]): 6920 nM | TGI (HOP-62; read-out: pTGI (converted)): 309 nM | CC50 (SK-MEL-2; [3]): 417 nM | TGI (SK-MEL-2; read-out: pTGI (converted)): 25.7 nM | CC50 (A549; [3]): 33900 nM | TGI (A549; read-out: pTGI (converted)): 5010 nM | CC50 (OVCAR-8; [3]): 15100 nM | TGI (OVCAR-8; read-out: pTGI (converted)): 2290 nM | CC50 (MCF7; [3]): 8910 nM | TGI (MCF7; read-out: pTGI (converted)): 3240 nM | CC50 (NCI-H23; [3]): 10000 nM | TGI (NCI-H23; read-out: pTGI (converted)): 2190 nM | CC50 (UACC-257; [3]): 11000 nM | TGI (UACC-257; read-out: pTGI (converted)): 1200 nM | CC50 (OVCAR-5; [3]): 18200 nM | TGI (OVCAR-5; read-out: pTGI): 5250 nM | CC50 (Malme-3M; [3]): 4370 nM | TGI (Malme-3M; read-out: pTGI (converted)): 79.4 nM | CC50 [2, 3]: 34700 nM | TGI ([2]; read-out: pTGI (converted)): 89.1 nM | CC50 (UO-31; [3]): 2290 nM | TGI (UO-31; read-out: pTGI (converted)): 77.6 nM | CC50 (SN12C; [3]): 12900 nM | TGI (SN12C; read-out: pTGI (converted)): 1410 nM | CC50 (BT-549; [3]): 151 nM | TGI (BT-549; read-out: pTGI (converted)): 12.9 nM | CC50 (SF-268; [3]): 12900 nM | TGI (SF-268; read-out: pTGI (converted)): 100 nM | CC50 (DU-145; [3]): 12900 nM | TGI (DU-145; read-out: pTGI (converted)): 2090 nM | CC50 (SK-OV-3; [3]): 12000 nM | TGI (SK-OV-3; read-out: pTGI (converted)): 550 nM | CC50 (MOLT-4; [3]): 34700 nM | TGI (MOLT-4; read-out: pTGI (converted)): 15100 nM | CC50 (TK-10; [3]): 3310 nM | TGI (TK-10; read-out: pTGI (converted)): 129 nM | CC50 (NCI-H322M; [3]): 12000 nM | TGI (NCI-H322M; read-out: pTGI (converted)): 3020 nM | CC50 (HCC 2998; [3]): 10000 nM | TGI (HCC 2998; read-out: pTGI (converted)): 912 nM | CC50 (HCT-15; [3]): 11000 nM | TGI (HCT-15; read-out: pTGI (converted)): 537 nM | CC50 (M14; [3]): 6760 nM | TGI (M14; read-out: pTGI (converted)): 646 nM | CC50 (HOP-92; [3]): 191 nM | TGI (HOP-92; read-out: pTGI (converted)): 63.1 nM | CC50 (OVCAR-4; [3]): 10000 nM | TGI (OVCAR-4; read-out: pTGI (converted)): 417 nM | CC50 (COLO 205; [3]): 17000 nM | TGI (COLO 205; read-out: pTGI (converted)): 5750 nM | CC50 (EKVX; [3]): 15800 nM | TGI (EKVX; read-out: pTGI (converted)): 1100 nM | CC50 (HCT-116; [3]): 1820 nM | TGI (HCT-116; read-out: pTGI (converted)): 372 nM | CC50 (MDA-N; [3]): 14100 nM | TGI (MDA-N; read-out: pTGI (converted)): 1910 nM | CC50 (SR; [3]): 34700 nM | TGI (SR; read-out: pTGI (converted)): 14100 nM | CC50 (SNB-75; [3]): 17000 nM | TGI (SNB-75; read-out: pTGI (converted)): 603 nM | CC50 (HT-29; [3]): 10000 nM | TGI (HT-29; read-out: pTGI (converted)): 1820 nM | CC50 (NCI/ADR-RES; [3]): 33900 nM | TGI (NCI/ADR-RES; read-out: pTGI (converted)): 8130 nM | CC50 (MDA-MB-435; [3]): 22900 nM | TGI (MDA-MB-435; read-out: pTGI (converted)): 2090 nM | CC50 (HL-60(TB); [3]): 34700 nM | TGI (HL-60(TB); read-out: pTGI (converted)): 6610 nM
